The record followed here is US7638540B2, “Benzofuran compound and medicinal composition containing the same” (The New Industry Research Organization, priority 2003, dated 2009).

A word on the melting point: it is the temperature, or range, at which the solid turns liquid. As for `COc1ccc(CCNC(=O)/C=C(\C)c2ccc(C(=O)c3oc4c(OC)cccc4c3NC(=O)/C(C#N)=C(/C)O)cc2)cc1OC` [Example 106, N-[2-(4-{(E)-2-[2-(3,4-dimethoxyphenyl)ethylcarbamoyl]-1-methylvinyl}benzoyl)-7-methoxybenzofuran-3-yl]-2-cyano-3-hydroxy-(Z)-2-butenamide], the melting point fell in the range of 202.9 to 205.8 °C.
The value for `C/C(=C\C(=O)N1CCOCC1)c1ccc2oc(C(=O)c3ccccc3)cc2c1` [Example 25, (E)-3-(2-benzoylbenzofuran-5-yl)-1-morpholino-2-buten-1-one] was 115.5 to 117 °C; that for `O=C(O)CCCOc1cccc2cc(C(Cl)=CC=CC(=O)N3CCOCC3)oc12` (stereo in doubt) [Example 147, (2E,4Z)-4-[2-(1-chloro-5-morpholin-4-yl-5-oxo-penta-1,3-dienyl)benzofuran-7-yloxy]butyric acid] was 152.5 to 154.8 °C; that for `Clc1ccc(-c2c(-c3csc(-c4ccccc4)n3)oc3c(Cl)cccc23)cc1` [Example 213, 4-[7-chloro-3-(4-chlorophenyl)benzofuran-2-yl]-2-phenylthiazole] was 165.5 to 166 °C.
To `CC(=O)c1oc2ccc(Br)cc2c1NC(=O)CC#N` [Example 193, N-(2-acetyl-5-bromobenzofuran-3-yl)-2-cyanoacetamide] belongs 214.4 to 215.1 °C; to `CCN(CC)C(=O)/C=C(\C)c1ccc(OCCCSc2ccc(Cl)cc2)c2oc(C(C)=O)cc12` [Example 139, (E)-3-{2-acetyl-7-(3-(4-chlorophenylsulfanyl)propoxy)benzofuran-4-yl}-2-butenoic acid diethylamide], 110.5 to 113.5 °C; to `CCOC(=O)c1oc2ccccc2c1NC(=O)c1cnoc1C` [Example 68, Ethyl 3-[(5-methylisoxazole-4-carbonyl)amino]benzofurane-2-carboxylate], 166 to 168.2 °C.
To `COc1ccc(Br)c2c(NC(C)=O)c(C(C)=O)oc12` [Example 211, N-(2-acetyl-4-bromo-7-methoxybenzofuran-3-yl)acetamide] belongs 235.3 to 237.8 °C; to `COc1ccc2c(NC(=O)c3cnoc3C)c(C(C)=O)oc2c1` [Example 83, N-(2-acetyl-6-methoxybenzofuran-3-yl)-5-methylisoxazole-4-carboxamide], 168.2 to 170.1 °C.
In turn, `Cc1oncc1C(=O)Nc1c(C(C)O)oc2ccc(Br)cc12` (centres unmarked) [Example 70, N-[5-bromo-2-(1-hydroxyethyl)benzofuran-3-yl]-5-methylisoxazole-4-carboxamide] returned a melting point of 125.2 to 128.8 °C.
The value for `CCN(CC)C(=O)/C=C(\C)c1ccc(OCCCCl)c2oc(C(C)=O)cc12` [Example 137, (E)-3-[2-acetyl-7-(3-chloropropoxy)benzofuran-4-yl]-2-butenoic acid diethylamide] was 80.6 to 82.1 °C; that for `CCN(CC)C(=O)/C=C(\C)c1ccc2oc(C(=O)c3ccc(C#N)cc3)c(NC(=O)c3cnoc3C)c2c1` [Example 89, (E)-N-[2-(4-cyanobenzoyl)-5-(2-diethylcarbamoyl-1-methylvinyl)benzofuran-3-yl]-5-methylisoxazole-4-carboxamide] was 202.6 to 205.5 °C; that for `CC(=O)c1oc2ccc(Br)cc2c1NC(=O)/C=C/CCc1ccccc1` [Example 175, (E)-5-phenyl-2-penteneoic acid (2-acetyl-5-bromobenzofuran-3-yl)amide] was 129 to 131 °C.
To `COc1ccc(NC(=O)/C(C#N)=C(/C)O)c2cc(C(C)=O)oc12` [Example 112, (Z)-N-(2-acetyl-7-methoxybenzofuran-4-yl)-2-cyano-3-hydroxy-2-butenamide] belongs 243.4 to 246.4 °C; to `Cc1oncc1C(=O)Nc1c(C(=O)c2ccc(Cl)cc2)oc2ccc(Br)cc12` [Example 77, N-[5-bromo-2-(4-chlorobenzoyl)benzofuran-3-yl]-5-methylisoxazole-4-carboxamide], 240.8 to 243.2 °C; to `COc1ccc(NC(=O)/C=C(/C)c2cc3cccc(OC(c4ccccc4)c4ccccc4)c3o2)cc1OC` [Example 43, (Z)-3-(7-benzhydryloxybenzofuran-2-yl)-N-(3,4-dimethoxyphenyl)-2-butenamide], 93.9 to 94.5 °C.
On to `CCOC(=O)/C=C/C=C(\Cl)c1cc2cccc(OC)c2o1` [Example 62, Ethyl (2E,4Z)-5-chloro-5-(7-methoxybenzofuran-2-yl)penta-2,4-dienoate], for which the melting point is 113.9 to 117.6 °C.
The value for `CCN(CC)C(=O)/C=C(\C)c1ccc2oc(C(=O)Nc3cccc(OC)c3)c(N)c2c1` [Example 158, (E)-3-amino-5-(2-diethylcarbamoyl-1-methylvinyl)benzofurane-2-carboxylic acid (3-methoxyphenyl)amide] was 155 to 157 °C; that for `COc1ccc2oc(-c3csc(C)n3)c(-c3ccc(Cl)cc3)c2c1` [Example 217, 4-[3-(4-chlorophenyl)-5-methoxybenzofuran-2-yl]-2-methylthiazole] was 105.8 to 106.5 °C.
In turn, `COc1ccc(NC(=O)/C=C(\C)c2cc3cccc(OC(C)c4ccccc4)c3o2)cc1` (centres unmarked) [Example 172, (E)-3-[7-(1-phenylethoxy)benzofuran-2-yl]-2-butenoic acid (4-methoxyphenyl)amide] showed a melting point of 120 to 125 °C.
The compound `Cc1nc(-c2oc3c(Cl)cccc3c2-c2ccc(Cl)cc2)cs1` [Example 214, 4-[7-chloro-3-(4-chlorophenyl)benzofuran-2-yl]-2-methylthiazole] returned a melting point of 156.4 to 158.4 °C.
The value for `C/C=C/C(=O)Nc1c(C(C)=O)oc2cc(OC)ccc12` [Example 116, (E)-N-(2-acetyl-6-methoxybenzofuran-3-yl)-2-butenamide] was 153.8 to 155.7 °C.
The value for `COc1ccc(CCNC(=O)/C=C(\C)c2ccc(C(=O)c3oc4c(OC)cccc4c3NC(=O)c3cnoc3C)cc2)cc1OC` [Example 84, (E)-N-[2-(4-{2-[2-(3,4-dimethoxyphenyl)ethylcarbamoyl]-1-methylvinyl}benzoyl)-7-methoxybenzofuran-3-yl]-5-methylisoxazole-4-carboxamide] was 237.5 to 239.1 °C; that for `C/C=C/C(=O)Nc1c(C(=O)c2ccc(Cl)cc2)oc2ccc(Br)cc12` [Example 115, (E)-N-[5-bromo-2-(4-chlorobenzoyl)benzofuran-3-yl]-2-butenamide] was 210.4 to 212.8 °C; that for `C/C(=C\C(=O)N1CCOCC1)c1ccc2oc(/C(C)=C/C(=O)O)cc2c1` [Example 136, (E,E)-3-[5-(1-methyl-3-morpholin-4-yl-3-oxopropenyl)benzofuran-2-yl]-2-butenoic acid] was 202.6 to 204.4 °C.
The compound `COc1ccc(CCNC(=O)/C=C/C=C(\Cl)c2cc3cccc(OCCCCl)c3o2)cc1OC` [Example 60, (2E,4Z)-5-chloro-5-[7-(3-chloropropoxy)benzofuran-2-yl]penta-2,4-dienoic acid [2-(3,4-dimethoxyphenyl)ethyl]amide] had a melting point of 149 to 150 °C.
The value for `C/C(O)=C(\C#N)C(=O)Nc1c(C(=O)c2ccc(C#N)cc2)oc2ccc(Br)cc12` [Example 100, (Z)-N-[5-bromo-2-(4-cyanobenzoyl)benzofuran-3-yl]-2-cyano-3-hydroxy-2-butenamide] was 269.3 to 271.2 °C.
As for `CCOC(=O)C(CSCc1ccccc1)NC(=O)/C=C/C=C(\Cl)c1cc2cc(Br)ccc2o1` (centres unmarked) [Example 64, Ethyl (2E,4Z)-3-benzylsulfanyl-2-[5-(5-bromobenzofuran-2-yl)-5-chloropenta-2,4-dienoylamino]propionate], the melting point fell in the range of 133.7 to 135.4 °C.
As to `COc1cccc2cc(/C(Cl)=C/C=C/C(=O)N3CCOCC3)oc12` [Example 138, (2E,4Z)-5-chloro-5-(7-methoxybenzofuran-2-yl)-1-morpholin-4-ylpenta-2,4-dien-1-one], the melting point was in the range of 185.4 to 186.6 °C.
To `Cc1oncc1C(=O)Nc1c(C(=O)/C=C/c2ccccc2)oc2ccc(Br)cc12` [Example 173, (E)-5-methylisoxazole-4-carboxylic acid [5-bromo-2-(3-phenylacryloyl)benzofuran-3-yl]amide] belongs 219.6 to 220.3 °C; to `C/C=C/C(=O)NC(C)c1cc2ccccc2o1` (centres unmarked) [Example 192, (E)-2-butenoic acid (1-(benzofuran-2-yl)ethyl)amide], 98 to 100 °C.
The value for `N#Cc1oc2ccc(Br)cc2c1NC(=O)/C=C/c1ccccc1` [Example 122, (E)-N-(5-bromo-2-cyanobenzofuran-3-yl)-3-phenylacrylamide] was 240.2 to 242 °C.
To `O=C(/C=C/c1ccccc1)Nc1c(C(=O)c2ccc(Cl)cc2)oc2ccc(Br)cc12` [Example 113, (E)-N-[5-bromo-2-(4-chlorobenzoyl)benzofuran-3-yl]-3-phenylacrylamide] belongs 171.2 to 171.8 °C.
On to `COc1cccc2c(NC(=O)/C(C#N)=C(/C)O)c(C(C)=O)oc12` [Example 102, (Z)-N-(2-acetyl-7-methoxybenzofuran-3-yl)-2-cyano-3-hydroxy-2-butenamide], for which the melting point was in the range of 207.2 to 208.9 °C.
The value for `COc1cccc2c(NC(=O)/C=C/c3ccccc3)c(Cl)oc12` [Example 181, (E)-N-(2-chloro-7-methoxybenzofuran-3-yl)-3-phenylacrylamide] was 220 to 221.3 °C.
To `COc1cccc2c(NC(=O)CCl)c(C(C)=O)oc12` [Example 205, N-(2-acetyl-7-methoxybenzofuran-3-yl)-2-chloroacetamide] belongs 186.2 to 188.3 °C.
To `COc1ccc2oc(-c3nc(N=CN(C)C)sc3C=O)c(-c3ccc(Cl)cc3)c2c1` [Example 221, N′-{4-[3-(4-chlorophenyl)-5-methoxybenzofuran-2-yl]-5-formylthiazol-2-yl}-N,N-dimethylformamidine] belongs 203.5 to 205 °C; to `CCc1c(/C(C)=C/C(=O)NCCc2ccc(OC)c(OC)c2)oc2ccccc12` [Example 167, 3-(3-ethylbenzofuran-2-yl)-2-butenoic acid [2-(3,4-dimethoxyphenyl)ethyl]amide], 131 to 135 °C.
